Assay results published in patent US11564923B2, “Compounds and pharmaceutical compositions thereof for the treatment of inflammatory disorders” (Galapagos NV, priority 2017, dated 2023).

target: T1, Recombinant human TYK2 catalytic domain (amino acids 871-1187) (Homo sapiens, UniProt P29597); assay: TYK2 radioactive assay polyGT substrate; assay type: biochemical; also: 0.1 µM ATP
T1 construct: catalytic domain (amino acids 871-1187)
T1 sequence (P29597 871-1187): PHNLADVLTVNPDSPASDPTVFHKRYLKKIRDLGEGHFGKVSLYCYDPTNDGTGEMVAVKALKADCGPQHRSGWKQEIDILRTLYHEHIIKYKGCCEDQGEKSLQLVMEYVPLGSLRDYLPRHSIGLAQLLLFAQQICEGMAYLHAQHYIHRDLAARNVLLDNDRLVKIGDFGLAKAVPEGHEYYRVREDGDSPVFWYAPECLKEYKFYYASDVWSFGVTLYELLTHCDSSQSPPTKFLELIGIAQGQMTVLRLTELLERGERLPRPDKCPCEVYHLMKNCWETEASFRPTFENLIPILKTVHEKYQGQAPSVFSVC
Method: After 120 min at 30° C., reactions were stopped by adding 25 μL/well of 150 mM phosphoric acid. […] Plates were washed 6 times with 300 μL per well of a 75 mM phosphoric acid solution and the bottom of the plates is sealed. […] Kinase activity is calculated by subtracting counts per min (cpm) obtained in the presence of a positive control inhibitor (10 μM staurosporine) from cpm obtained in the presence of vehicle. The ability of a test compound to inhibit this activity (or percentage inhibition) is determined as: […]
cpm test compound=cpm determined for sample with test compound present cpm control=cpm determined for sample with positive control inhibitor cpm vehicle=cpm determined in the presence of vehicle
Dose dilution series were prepared for the compounds enabling the testing of dose-response effects in the TYK2 assay and the calculation of the IC50 for each compound. Each compound is routinely tested at concentration of 20 μM followed by a 1/5 serial dilution, 10 points in a final concentration of 1% DMSO.

Going from `Cc1cc(C#N)ncc1Oc1cc(Nc2ccc(C(=O)N3C[C@@H](O)[C@H](F)C3)cn2)c2ncn(C)c2n1` (racemic) [Compound 140, 4-methyl-5-[3-methyl-7-[[5-[rac-(3R,4R)-3-fluroo-4-hydroxypyrrolidine-1-carbonyl]pyridin-2-yl]amino]imidazo[4,5-b]pyridin-5-yl]oxypyridine-2-carbonitrile] to `CO[C@@H]1CN(C(=O)c2ccc(Nc3cc(Oc4cnc(C#N)cc4C)nc4c3ncn4C)nc2)C[C@H]1F` (racemic) [Compound 142, 4-methyl-5-[3-methyl-7-[[5-[rac-(3R,4R)-3-fluoro-4-methoxypyrrolidine-1-carbonyl]pyridin-2-yl]amino]imidazo[4,5-b]pyridin-5-yl]oxypyridine-2-carbonitrile], the IC50 rises from 2.87 nM to 4.53 nM (1.6-fold). The first is the more potent here.

First: CCNC(=O)Cc1ccc(Nc2cc(Oc3cnc(C#N)cc3C)nc3c2ncn3C)cc1 [Compound 27, 2-{4-[5-(6-Cyano-4-methyl-pyridin-3-yloxy)-3-methyl-3H-imidazo[4,5-b]pyridin-7-ylamino]-phenyl}-N-ethyl-acetamide]
Second: CNC(=O)c1ccc(Nc2cc(Oc3cnc(C#N)cc3C)nc3c2ncn3C)cn1 [Compound 29, 5-[5-(6-Cyano-4-methyl-pyridin-3-yloxy)-3-methyl-3H-imidazo[4,5-b]pyridin-7-ylamino]-pyridine-2-carboxylic acid methylamide]
The IC50 of the first is 2.5-fold lower: 38.9 nM for the first, 97.4 nM for the second.

`Cc1cc(C#N)ncc1Oc1cc(Nc2ccc(C(=O)N3CCOCC3)nc2)c2ncn(C)c2n1` [Compound 28, 4-Methyl-5-{3-methyl-7-[6-(morpholine-4-carbonyl)-pyridin-3-ylamino]-3H-imidazo[4,5-b]pyridin-5-yloxy}-pyridine-2-carbonitrile] and `Cc1cc(C#N)ncc1Oc1cc(Nc2ccc(N3CCOCC3)cc2)c2ncn(C)c2n1` [Compound 109, 4-methyl-5-[3-methyl-7-(4-morpholinoanilino)imidazo[4,5-b]pyridin-5-yl]oxy-pyridine-2-carbonitrile] are within 1.5-fold of each other in IC50: 27.1 nM for the first, 24.4 nM for the second.

`Cc1cc(C#N)ncc1Oc1cc(Nc2ccc(N3CCN(CC(F)(F)F)CC3)nn2)c2ncn(C)c2n1` [Compound 42, 4-Methyl-5-(3-methyl-7-{6-[4-(2,2,2-trifluoro-ethyl)-piperazin-1-yl]-pyridazin-3-ylamino}-3H-imidazo[4,5-b]pyridin-5-yloxy)-pyridine-2-carbonitrile] and `Cc1cc(C#N)ncc1Oc1cc(Nc2ccc(N3CCC(C#N)CC3)nn2)c2ncn(C)c2n1` [Compound 45, 5-{7-[6-(4-Cyano-piperidin-1-yl)-pyridazin-3-ylamino]-3-methyl-3H-imidazo[4,5-b]pyridin-5-yloxy}-4-methyl-pyridine-2-carbonitrile] are within 1.5-fold of each other in IC50: 2.74 nM for the first, 2.17 nM for the second.

Going from `Cc1cc(C#N)ncc1Oc1cc(Nc2ccc(C(=O)N(C)C)c(C)n2)c2ncn(C)c2n1` [Compound 77, 6-[[5-[(6-cyano-4-methyl-3-pyridyl)oxy]-3-methyl-imidazo[4,5-b]pyridin-7-yl]amino]-N,N,2-trimethyl-pyridine-3-carboxamide] to `Cc1cc(C#N)ncc1Oc1cc(Nc2ccc(C(=O)N3CC(CN(C)C)C3)cn2)c2ncn(C)c2n1` [Compound 132, 5-[7-[[5-[3-[(dimethylamino)methyl]azetidine-1-carbonyl]pyridin-2-yl]amino]-3-methylimidazo[4,5-b]pyridin-5-yl]oxy-4-methylpyridine-2-carbonitrile], the IC50 rises from 2.98 nM to 8.93 nM (3-fold). The first is the more potent here.

Going from `Cc1cc(C#N)ncc1Oc1cc(Nc2ccc(C(=O)NCCCO)cn2)c2ncn(C)c2n1` [Compound 101, 6-[[5-[(6-cyano-4-methyl-3-pyridyl)oxy]-3-methyl-imidazo[4,5-b]pyridin-7-yl]amino]-N-(3-hydroxypropyl)pyridine-3-carboxamide] to `Cc1cc(C#N)ncc1Oc1cc(Nc2ccc(C(=O)N3CC(CO)(CO)C3)cn2)c2ncn(C)c2n1` [Compound 135, 5-[7-[[5-[3,3-bis(hydroxymethyl)azetidine-1-carbonyl]pyridin-2-yl]amino]-3-methylimidazo[4,5-b]pyridin-5-yl]oxy-4-methylpyridine-2-carbonitrile], the IC50 falls from 9.36 nM to 2.08 nM (4.5-fold).

Compared with `Cc1cc(C#N)ncc1Oc1cc(Nc2ccc(N3CCN(C)CC3)cc2)c2ncn(C)c2n1` [Compound 110, 4-methyl-5-[3-methyl-7-[4-(4-methylpiperazin-1-yl)anilino]imidazo[4,5-b]pyridin-5-yl]oxy-pyridine-2-carbonitrile], `Cc1cc(C#N)ncc1Oc1cc(Nc2ccc(C(=O)N3CC4(CN(C)C4)C3)cn2)c2ncn(C)c2n1` [Compound 123, 4-methyl-5-[3-methyl-7-[[5-(6-methyl-2,6-diazaspiro[3.3]heptane-2-carbonyl)-2-pyridyl]amino]imidazo[4,5-b]pyridin-5-yl]oxy-pyridine-2-carbonitrile] is 2.8-fold lower in IC50: 26.7 nM for the first, 9.38 nM for the second.

`Cc1cc(C#N)ncc1Oc1cc(Nc2ccc(C(=O)N3CC4(CCO4)C3)cn2)c2ncn(C)c2n1` [Compound 120, 4-methyl-5-[3-methyl-7-[[5-(3-oxa-6-azaspiro[3.3]heptane-6-carbonyl)-2-pyridyl]amino]imidazo[4,5-b]pyridin-5-yl]oxy-pyridine-2-carbonitrile] and `Cc1cc(C#N)ncc1Oc1cc(Nc2ccc(C(=O)N3CC4(COC4)C3)cn2)c2ncn(C)c2n1` [Compound 134, 4-methyl-5-[3-methyl-7-[[5-(2-oxa-6-azaspiro[3.3]heptane-6-carbonyl)pyridin-2-yl]amino]imidazo[4,5-b]pyridin-5-yl]oxypyridine-2-carbonitrile] are within 1.5-fold of each other in IC50: 1.57 nM for the first, 2.1 nM for the second.

`COC1(C)CN(C(=O)c2ccc(Nc3cc(Oc4cnc(C#N)cc4C)nc4c3ncn4C)nc2)C1` [Compound 121, 5-[7-[[5-(3-methoxy-3-methyl-azetidine-1-carbonyl)-2-pyridyl]amino]-3-methyl-imidazo[4,5-b]pyridin-5-yl]oxy-4-methyl-pyridine-2-carbonitrile] and `COC1CCN(C(=O)c2ccc(Nc3cc(Oc4cnc(C#N)cc4C)nc4c3ncn4C)nc2)CC1` [Compound 125, 5-[7-[[5-(4-methoxypiperidine-1-carbonyl)pyridin-2-yl]amino]-3-methylimidazo[4,5-b]pyridin-5-yl]oxy-4-methylpyridine-2-carbonitrile] are within 1.5-fold of each other in IC50: 1.9 nM for the first, 2.26 nM for the second.

First: Cc1cc(C#N)ncc1Oc1cc(Nc2ccc(C(=O)N3CC(C(=O)OC(C)(C)C)C3)cn2)c2ncn(C)c2n1 [Compound 122, tert-butyl 1-[6-[[5-[(6-cyano-4-methyl-3-pyridyl)oxy]-3-methyl-imidazo[4,5-b]pyridin-7-yl]amino]pyridine-3-carbonyl]azetidine-3-carboxylate]
Second: Cc1cc(C#N)ncc1Oc1cc(Nc2ccc(C(=O)N3CCC(N(C)C(=O)OC(C)(C)C)C3)cn2)c2ncn(C)c2n1 (centres unmarked) [Compound 130, (1-{6-[5-(6-Cyano-4-methyl-pyridin-3-yloxy)-3-methyl-3H-imidazo[4,5-b]pyridin-7-ylamino]-pyridine-3-carbonyl}-pyrrolidin-3-yl)-methyl-carbamic acid tert-butyl ester]
The IC50 of the first is 1.5-fold lower: 3.03 nM for the first, 4.67 nM for the second. The first is the more potent here.

`Cc1cc(C#N)ncc1Oc1cc(Nc2ccc(C(=O)N3CCC(O)CC3)cn2)c2ncn(C)c2n1` [Compound 124, 5-[7-[[5-(4-hydroxypiperidine-1-carbonyl)pyridin-2-yl]amino]-3-methylimidazo[4,5-b]pyridin-5-yl]oxy-4-methylpyridine-2-carbonitrile] and `Cc1cc(C#N)ncc1Oc1cc(Nc2ccc(C(=O)N3CC[C@@H](O)C3)cn2)c2ncn(C)c2n1` [Compound 127, 5-[7-[[5-[(3R)-3-hydroxypyrrolidine-1-carbonyl]pyridin-2-yl]amino]-3-methylimidazo[4,5-b]pyridin-5-yl]oxy-4-methylpyridine-2-carbonitrile] are within 1.5-fold of each other in IC50: 2.51 nM for the first, 3.36 nM for the second.

`Cc1cc(C#N)ncc1Oc1cc(Nc2ccc(C(=O)N3CCC(N(C)C)CC3)cn2)c2ncn(C)c2n1` [Compound 126, 5-[7-[[5-[4-(dimethyalmino)piperidine-1-carbonyl]pyridin-2-yl]amino]-3-methylimidazo[4,5-b]pyridin-5-yl]oxy-4-methylpyridine-2-carbonitrile] and `COCCO[C@@H]1CCN(C(=O)c2ccc(Nc3cc(Oc4cnc(C#N)cc4C)nc4c3ncn4C)nc2)C1` [Compound 129, 5-[7-[[5-[(3R)-3-(2-methoxyethoxy)pyrrolidine-1-carbonyl]pyridin-2-yl]amino]-3-methylimidazo[4,5-b]pyridin-5-yl]oxy-4-methylpyridine-2-carbonitrile] are within 1.5-fold of each other in IC50: 5.54 nM for the first, 5.84 nM for the second.

First: Cc1cc(C#N)ncc1Oc1cc(Nc2ccc(C(=O)N3CCN(C(=O)OC(C)(C)C)CC3)cn2)c2ncn(C)c2n1 [Compound 128, 4-{6-[5-(6-Cyano-4-methyl-pyridin-3-yloxy)-3-methyl-3H-imidazo[4,5-b]pyridin-7-ylamino]-pyridine-3-carbonyl}-piperazine-1-carboxylic acid tert-butyl ester]
Second: Cc1cc(C#N)ncc1Oc1cc(Nc2ccc(C(=O)N3CCC4(COC4)C3)cn2)c2ncn(C)c2n1 [Compound 131, 4-methyl-5-[3-methyl-7-[[5-(2-oxa-7-azaspiro[3.4]octane-7-carbonyl)pyridin-2-yl]amino]imidazo[4,5-b]pyridin-5-yl]oxypyridine-2-carbonitrile]
The IC50 of the first is 2-fold higher: 5.87 nM for the first, 2.87 nM for the second.
